These results are taken from article PMC9555642 (PLoS ONE, 2022).

In one assay the target is T1, HDAC11 (Homo sapiens, UniProt Q96DB2).
T1 construct: purchased Eurofins Pharma Discovery Services 2663
T1 sequence (Q96DB2 1-347): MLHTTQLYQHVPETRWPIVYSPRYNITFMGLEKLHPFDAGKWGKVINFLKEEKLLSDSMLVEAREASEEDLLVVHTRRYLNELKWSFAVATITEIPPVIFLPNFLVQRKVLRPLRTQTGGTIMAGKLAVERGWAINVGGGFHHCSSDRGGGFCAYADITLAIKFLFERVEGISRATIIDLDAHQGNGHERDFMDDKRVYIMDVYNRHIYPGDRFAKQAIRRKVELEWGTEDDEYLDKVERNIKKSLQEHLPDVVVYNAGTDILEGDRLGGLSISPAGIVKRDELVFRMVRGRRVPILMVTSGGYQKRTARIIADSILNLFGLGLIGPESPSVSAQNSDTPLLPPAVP
Nature of the assay: HDAC enzymatic activity (Eurofins). Format: biochemical. As to conditions: Class IV; ACY-1083 mean of two separate measurements, Ricolinostat and Tubastatin A one measurement.

Another assay has as its target T2, HDAC6 (Homo sapiens, UniProt Q9UBN7).
T2 sequence (Q9UBN7 1-1215): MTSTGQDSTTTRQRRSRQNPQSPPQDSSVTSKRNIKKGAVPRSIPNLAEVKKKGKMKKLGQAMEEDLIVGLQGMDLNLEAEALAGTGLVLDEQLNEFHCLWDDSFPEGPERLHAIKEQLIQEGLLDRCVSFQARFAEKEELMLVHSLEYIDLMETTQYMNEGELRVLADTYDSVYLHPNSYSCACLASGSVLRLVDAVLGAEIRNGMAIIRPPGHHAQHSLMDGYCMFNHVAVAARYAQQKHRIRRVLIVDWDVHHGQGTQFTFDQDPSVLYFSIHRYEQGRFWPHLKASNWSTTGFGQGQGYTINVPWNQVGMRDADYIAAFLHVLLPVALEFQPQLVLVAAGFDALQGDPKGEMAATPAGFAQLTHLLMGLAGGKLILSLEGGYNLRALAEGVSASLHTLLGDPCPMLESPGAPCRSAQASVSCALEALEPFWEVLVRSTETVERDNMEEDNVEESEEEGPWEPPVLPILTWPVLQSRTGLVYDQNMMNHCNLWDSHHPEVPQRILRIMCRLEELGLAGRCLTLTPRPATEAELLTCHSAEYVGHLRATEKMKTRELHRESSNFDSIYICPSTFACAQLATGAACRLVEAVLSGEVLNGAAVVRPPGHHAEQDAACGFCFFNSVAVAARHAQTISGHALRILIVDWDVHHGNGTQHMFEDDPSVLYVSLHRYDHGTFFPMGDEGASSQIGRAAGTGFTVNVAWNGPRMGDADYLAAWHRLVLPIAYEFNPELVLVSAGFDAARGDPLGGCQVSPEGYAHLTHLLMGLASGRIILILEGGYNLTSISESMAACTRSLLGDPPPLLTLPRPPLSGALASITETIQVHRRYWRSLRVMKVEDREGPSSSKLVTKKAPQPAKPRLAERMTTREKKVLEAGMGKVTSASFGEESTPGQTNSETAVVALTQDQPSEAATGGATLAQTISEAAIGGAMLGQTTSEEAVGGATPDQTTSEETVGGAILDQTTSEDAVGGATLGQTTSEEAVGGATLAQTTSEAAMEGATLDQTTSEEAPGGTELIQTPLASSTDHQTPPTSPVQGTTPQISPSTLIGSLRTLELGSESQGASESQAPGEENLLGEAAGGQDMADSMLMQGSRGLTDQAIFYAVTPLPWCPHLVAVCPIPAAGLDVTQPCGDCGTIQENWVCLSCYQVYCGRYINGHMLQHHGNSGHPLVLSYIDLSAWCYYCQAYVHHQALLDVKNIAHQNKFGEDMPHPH
The assay is described as follows: HDAC enzymatic activity (Eurofins). The class given is biochemical. As to conditions: Class IIB; ACY-1083 mean of two separate measurements, Ricolinostat and Tubastatin A one measurement.

In assay [1] the target is T3, dopamine active transporter (DAT) (Homo sapiens, UniProt Q01959).
T3 construct: purchased Eurofins Pharma Discovery Services
Nature of the assay: Secondary pharmacology panel (Eurofins). The class given is binding.
Description: Second pharmacology screening was performed at Eurofins Pharma Discovery Services in a panel of 190 in vitro radioligand binding and enzyme assays covering a diverse set of enzymes, receptors, ion channels, and transporters.

The target in another assay is T4, HDAC7 (Homo sapiens, UniProt Q8WUI4).
T4 construct: purchased Eurofins Pharma Discovery Services 2610
T4 sequence (Q8WUI4 1-952): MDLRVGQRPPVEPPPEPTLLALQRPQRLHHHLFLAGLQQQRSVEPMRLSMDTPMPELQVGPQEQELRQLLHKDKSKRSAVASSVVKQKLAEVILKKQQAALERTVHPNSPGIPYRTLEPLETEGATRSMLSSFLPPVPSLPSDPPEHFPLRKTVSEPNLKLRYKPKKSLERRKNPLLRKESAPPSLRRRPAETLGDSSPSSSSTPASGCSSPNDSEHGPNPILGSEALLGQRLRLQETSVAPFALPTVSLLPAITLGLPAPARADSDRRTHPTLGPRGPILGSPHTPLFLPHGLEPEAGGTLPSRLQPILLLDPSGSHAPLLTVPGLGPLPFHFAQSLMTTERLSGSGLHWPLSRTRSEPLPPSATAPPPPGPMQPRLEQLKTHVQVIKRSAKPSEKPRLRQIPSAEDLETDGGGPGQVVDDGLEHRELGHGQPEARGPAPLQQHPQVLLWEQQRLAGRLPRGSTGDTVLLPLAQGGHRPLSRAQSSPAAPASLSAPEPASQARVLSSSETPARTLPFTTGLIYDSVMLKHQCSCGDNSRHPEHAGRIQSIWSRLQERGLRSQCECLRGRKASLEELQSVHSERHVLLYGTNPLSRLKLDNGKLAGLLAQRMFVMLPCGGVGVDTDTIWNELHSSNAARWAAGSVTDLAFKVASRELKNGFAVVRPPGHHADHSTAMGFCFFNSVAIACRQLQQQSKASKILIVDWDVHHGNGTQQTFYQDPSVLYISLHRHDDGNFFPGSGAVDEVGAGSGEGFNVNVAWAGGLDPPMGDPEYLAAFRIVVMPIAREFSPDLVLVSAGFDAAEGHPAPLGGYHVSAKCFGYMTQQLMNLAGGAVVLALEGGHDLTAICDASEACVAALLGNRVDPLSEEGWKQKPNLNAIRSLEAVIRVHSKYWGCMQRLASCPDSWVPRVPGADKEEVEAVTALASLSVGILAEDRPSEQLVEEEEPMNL
Nature of the assay: HDAC enzymatic activity (Eurofins). Format: biochemical. As to conditions: Class IIA; ACY-1083 mean of two separate measurements, Ricolinostat and Tubastatin A one measurement.

T3 sequence (Q01959 whole entry, species assumed): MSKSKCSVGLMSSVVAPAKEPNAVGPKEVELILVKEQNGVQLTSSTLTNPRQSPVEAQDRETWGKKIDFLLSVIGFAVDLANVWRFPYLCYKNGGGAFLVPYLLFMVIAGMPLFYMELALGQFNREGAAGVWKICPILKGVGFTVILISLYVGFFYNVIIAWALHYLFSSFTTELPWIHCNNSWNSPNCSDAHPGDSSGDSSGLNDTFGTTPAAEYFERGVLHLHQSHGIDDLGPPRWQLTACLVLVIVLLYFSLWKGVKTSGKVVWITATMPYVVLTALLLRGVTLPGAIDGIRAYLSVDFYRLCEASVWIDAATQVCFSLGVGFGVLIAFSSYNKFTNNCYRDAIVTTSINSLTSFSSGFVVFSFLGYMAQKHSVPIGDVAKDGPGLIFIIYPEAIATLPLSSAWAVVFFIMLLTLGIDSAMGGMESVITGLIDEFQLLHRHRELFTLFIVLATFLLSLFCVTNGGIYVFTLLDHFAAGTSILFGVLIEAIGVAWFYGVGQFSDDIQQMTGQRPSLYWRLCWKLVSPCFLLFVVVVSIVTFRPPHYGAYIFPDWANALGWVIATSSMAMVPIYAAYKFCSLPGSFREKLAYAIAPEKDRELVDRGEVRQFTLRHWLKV

By IC50 is commonly meant the concentration at which inhibition is half-maximal. A low value points to inhibition by little substance. With ACY-1083, the IC50 at HDAC11 was 18.2 µM; at HDAC6, below 0.01 µM; in assay [1], 0.37 µM; on HDAC7 it was 6.51 µM.
